# Legend:
# Format in all cases: functional
# [1] = tested on: Reticulitermes speratus; assay: Antifeedant activity against Reticulitermes speratus assessed as antifeedant consumption at 75 ug/disk after 30 days by no-choice bioassay
# [2] = tested on: Reticulitermes speratus; assay: Antifeedant activity against Reticulitermes speratus assessed as antifeedant consumption at 150 ug/disk after 30 days by no-choice bioassay
# [3] = tested on: Reticulitermes speratus; assay: Antifeedant activity against Reticulitermes speratus assessed as antifeedant consumption at 200 ug/disk after 30 days by no-choice bioassay
# [4] = tested on: Reticulitermes speratus; assay: Antifeedant activity against Reticulitermes speratus assessed as antifeedant consumption at 50 ug/disk after 30 days by no-choice bioassay
# [5] = tested on: Reticulitermes speratus; assay: Antifeedant activity against Reticulitermes speratus assessed per disk after 30 days by no-choice bioassay
# [6] = tested on: Reticulitermes speratus; assay: Antifeedant activity against Reticulitermes speratus assessed as reduction in feeding at 100 to 200 ug/disk after 30 days by no-choice bioassay relative to vehicle-control; parameters: scale not given: the % may be the effect or the level left
# [7] = tested on: Reticulitermes speratus; assay: Antifeedant activity against Reticulitermes speratus assessed as antifeedant consumption at 100 ug/disk after 30 days by no-choice bioassay
# [8] = tested on: Reticulitermes speratus; assay: Antifeedant activity against Reticulitermes speratus assessed as survival at 300 ug/disk after 30 days by no-choice bioassay (reference value: 92.5%); conditions: 720 h
# [9] = tested on: Reticulitermes speratus; assay: Antifeedant activity against Reticulitermes speratus assessed as survival at 400 ug/disk after 30 days by no-choice bioassay (reference value: 92.5%); conditions: 720 h
# [10] = tested on: Reticulitermes speratus; assay: Antifeedant activity against Reticulitermes speratus assessed as survival at 200 ug/disk after 30 days by no-choice bioassay (reference value: 92.5%); conditions: 720 h
# [11] = tested on: Reticulitermes speratus; assay: Antifeedant activity against Reticulitermes speratus assessed as survival at 50 ug/disk after 30 days by no-choice bioassay (reference value: 92.5%); conditions: 720 h
# [12] = tested on: Reticulitermes speratus; assay: Antifeedant activity against Reticulitermes speratus assessed as survival at 100 ug/disk after 30 days by no-choice bioassay (reference value: 92.5%); conditions: 720 h
# [13] = tested on: Reticulitermes speratus; assay: Antifeedant activity against Reticulitermes speratus assessed as antifeedant consumption at 300 ug/disk after 30 days by no-choice bioassay
# [14] = tested on: Reticulitermes speratus; assay: Antifeedant activity against Reticulitermes speratus assessed as survival at 500 ug/disk after 30 days by no-choice bioassay (reference value: 92.5%); conditions: 720 h
# [15] = tested on: Reticulitermes speratus; assay: Antifeedant activity against Reticulitermes speratus assessed as antifeedant consumption at 500 ug/disk after 30 days by no-choice bioassay
# [16] = tested on: Reticulitermes speratus; assay: Antifeedant activity against Reticulitermes speratus assessed as antifeedant consumption at 400 ug/disk after 30 days by no-choice bioassay
# [17] = tested on: Reticulitermes speratus; assay: Antifeedant activity against Reticulitermes speratus assessed as antifeedant consumption at 10 ug/disk after 30 days by no-choice bioassay
# [18] = tested on: Reticulitermes speratus; assay: Antifeedant activity against Reticulitermes speratus assessed as antifeedant consumption at 7.5 ug/disk after 30 days by no-choice bioassay
# [19] = tested on: Reticulitermes speratus; assay: Antifeedant activity against Reticulitermes speratus assessed as survival at 7.5 ug/disk after 30 days by no-choice bioassay (reference value: 92.5%); conditions: 720 h
# [20] = tested on: Reticulitermes speratus; assay: Antifeedant activity against Reticulitermes speratus assessed as antifeedant consumption at 25 ug/disk after 30 days by no-choice bioassay
# [21] = tested on: Reticulitermes speratus; assay: Antifeedant activity against Reticulitermes speratus assessed as survival at 10 ug/disk after 30 days by no-choice bioassay (reference value: 92.5%); conditions: 720 h
# [22] = tested on: Reticulitermes speratus; assay: Antifeedant activity against Reticulitermes speratus assessed as antifeedant consumption at 5 ug/disk after 30 days by no-choice bioassay
# [23] = tested on: Reticulitermes speratus; assay: Antifeedant activity against Reticulitermes speratus assessed as reduction in feeding at 50 ug/disk after 30 days by no-choice bioassay relative to vehicle-control; parameters: scale not given: the % may be the effect or the level left
# [24] = tested on: Reticulitermes speratus; assay: Antifeedant activity against Reticulitermes speratus assessed as survival at 25 ug/disk after 30 days by no-choice bioassay (reference value: 92.5%); conditions: 720 h
# [25] = tested on: Reticulitermes speratus; assay: Antifeedant activity against Reticulitermes speratus assessed as survival at 5 ug/disk after 30 days by no-choice bioassay (reference value: 92.5%); conditions: 720 h
# [26] = tested on: Reticulitermes speratus; assay: Antifeedant activity against Reticulitermes speratus assessed as survival at 150 ug/disk after 30 days by no-choice bioassay (reference value: 92.5%); conditions: 720 h
# [27] = tested on: Reticulitermes speratus; assay: Antifeedant activity against Reticulitermes speratus assessed as antifeedant consumption at 125 ug/disk after 30 days by no-choice bioassay
# [28] = tested on: Reticulitermes speratus; assay: Antifeedant activity against Reticulitermes speratus assessed as survival at 75 ug/disk after 30 days by no-choice bioassay (reference value: 92.5%); conditions: 720 h
# [29] = tested on: Reticulitermes speratus; assay: Antifeedant activity against Reticulitermes speratus assessed as survival at 125 ug/disk after 30 days by no-choice bioassay (reference value: 92.5%); conditions: 720 h
SMILES,Activity [4] [µg],PC50 [5] [µg],PC95 [5] [µg],Activity [6] [%],Activity [7] [µg],survival at 300 µg/disc [8] [%],survival at 400 µg/disc [9] [%],survival at 200 µg/disc [10] [%],survival at 50 µg/disc [11] [%],survival at 100 µg/disc [12] [%],other results
COC(=O)C[C@H]1[C@]2(C)C3=C(C)[C@H](c4ccoc4)C[C@@H]3O[C@@H]2[C@H](O)[C@@H]2[C@@]1(C)C(=O)C=C[C@@]2(C)O,16.3,96,245.4,80,19.9,–,–,–,–,–,Activity [1]: 25.2 µg; Activity [2]: 10 µg; Activity [3]: 6.4 µg
CC(=O)O[C@@H]1C[C@H]2C(C)(C)C(=O)C=C[C@]2(C)[C@H]2CC[C@]3(C)C(=CC(=O)[C@@H]3c3ccoc3)[C@@]21C [17-EPIAZADIRADIONE],–,–,–,–,–,86.5,86.5,85.5,87,85.5,–
CC(=O)O[C@@H]1C[C@H]2C(C)(C)C(=O)C=C[C@]2(C)[C@H]2CC[C@]3(C)C(=CC(=O)[C@@]3(O)c3ccoc3)[C@@]21C [17-HYDROXYAZADIRADIONE],17.8,67.8,235.6,80,16.5,33.5,–,50,73,61,Activity [3]: 9.4 µg; Activity [13]: 8.6 µg
CC(=O)O[C@@H]1C[C@H]2C(C)(C)C(=O)C=C[C@]2(C)[C@H]2CC[C@]3(C)C(=CC(=O)[C@H]3c3ccoc3)[C@@]21C [AZADIRADIONE],–,238.5,827.5,–,55.1,39,24.5,65.5,–,73,Activity [3]: 79.3 µg; survival at 500 µg/disc [14]: 0.5%; Activity [13]: 62.9 µg; Activity [15]: 2 µg; Activity [16]: 49.5 µg
CC1(C)C(=O)C=C[C@]2(C)[C@H]3CC[C@@]4(C)[C@H](c5ccoc5)OC(=O)[C@H]5O[C@]54[C@]3(C)[C@H](O)C[C@@H]12 [DEACETYLGEDUNIN],4.7,22.5,113.7,–,7.2,–,–,–,20,12,Activity [17]: 3.2 µg; Activity [18]: 3.1 µg; survival at 7.5 µg/disc [19]: 87.3%; Activity [20]: 4.7 µg; survival at 10 µg/disc [21]: 73.3%; Activity [22]: 2.2 µg; Activity [23]: 80.38%; survival at 25 µg/disc [24]: 45.3%; survival at 5 µg/disc [25]: 91.3%
COC(=O)C[C@H]1[C@]2(C)C3=C(C)[C@H](c4ccoc4)C[C@H]3O[C@@H]2[C@H](O)[C@@H]2[C@]1(C)C(=O)C=C[C@@]2(C)C(=O)OC [DEACETYLNIMBIN],–,280.6,1581.2,–,–,74,–,78.5,87.5,85,–
C/C=C(\C)C(=O)O[C@H]1C[C@@H](O)[C@@]2(C)CO[C@H]3[C@H]4O[C@@H]5C[C@@H](c6ccoc6)C(C)=C5[C@@]4(C)[C@H](CC(=O)OC)[C@]1(C)[C@@H]32 [DESACETYL SALANNIN],–,55.2,1373.1,–,–,49,44,58,–,72,–
CC(=O)O[C@@H]1C[C@H]2C(C)(C)C(=O)C=C[C@]2(C)[C@H]2CC[C@@]3(C)[C@H](c4ccoc4)C(=O)[C@H]4O[C@]43[C@@]21C [EPOXYAZADIRADIONE],–,–,–,–,–,76.5,64,77,–,75.5,–
CC(=O)O[C@@H]1C[C@H]2C(C)(C)C(=O)C=C[C@]2(C)[C@H]2CC[C@@]3(C)[C@H](c4ccoc4)OC(=O)[C@H]4O[C@]43[C@@]21C [GEDUNIN],9,49,218.4,80,11,–,–,–,51.3,39.3,Activity [1]: 10.5 µg; Activity [20]: 8.5 µg; survival at 150 µg/disc [26]: 13.3%; Activity [2]: 5 µg; Activity [27]: 6.8 µg; survival at 25 µg/disc [24]: 82%; survival at 75 µg/disc [28]: 49.3%; survival at 125 µg/disc [29]: 23.3%
COC(=O)C[C@H]1[C@]2(C)C3=C(C)[C@H](c4ccoc4)C[C@H]3O[C@@H]2[C@H](OC(C)=O)[C@@H]2[C@]1(C)C(=O)C=C[C@@]2(C)C(=O)OC [NIMBIN],–,–,–,–,–,83,83,84.5,–,84,survival at 500 µg/disc [14]: 80.5%
C/C=C(/C)C(=O)O[C@H]1C[C@@H](OC(C)=O)[C@@]2(C)CO[C@H]3[C@H]4O[C@@H]5C[C@@H](c6ccoc6)C(C)=C5[C@@]4(C)[C@H](CC(=O)OC)[C@]1(C)[C@@H]32 [SALANNIN],1.8,19.5,203.3,80,1.4,–,–,–,58.7,40,Activity [1]: 0.8 µg; Activity [20]: 3.7 µg; survival at 150 µg/disc [26]: 30.7%; Activity [2]: 0.5 µg; Activity [27]: 0.8 µg; survival at 25 µg/disc [24]: 90.7%; survival at 75 µg/disc [28]: 29.3%; survival at 125 µg/disc [29]: 17.3%
